These results are taken from patent US10258602B2 (Ocera Therapeutics, Inc., priority 2007, dated 2019).

Structures are written as SMILES. pIC50: −log10 of the molar value.

One series deals with T1, CYP2C9 (Homo sapiens, UniProt P11712).
T1 construct: purchased BD Gentest, Becton-Dickinson (Supersomes); host or cells: insect cells
The series is described as follows: Cytochrome P450 inhibition, CYP2C9. Format: in vitro ADME. The conditions noted are these: read-out: IC50 2C9. The text has this: (§1) K. Assay for Cytochrome P450 Inhibition
(§2) Cytochrome P450 enzymes are implicated in the phase I metabolism of drugs. The majority of drug-drug interactions are metabolism-based and, moreover, these interactions typically involve inhibition of cytochrome P450s. Six CYP450 enzymes (CYP1A2, CYP2C8, CYP2C9, CYP2C19, CYP2D6 and CYP3A4) appear to be commonly responsible for the metabolism of most drugs and the associated drug-drug interactions. Assays to determine the binding of compounds of the invention to the various metabolically important isoforms of cytochrome P450 metabolizing enzymes are commercially available, for example NoAb BioDiscoveries (Mississaugua, ON, Canada) and Absorption Systems (Exton, Pa., USA). As well, a number of appropriate methods have been described or reviewed in the literature. (White, R. E. Ann. Rev. Pharmacol. Toxicol. 2000, 40, 133-157; Li, A. P. Drug. Disc. Today 2001, 6, 357-366; Turpeinen, M.; Korhonen, L. E. Tolonen, A.; et al. Eur. J. Pharm. Sci, 2006, 29, 130-138.)
(§3) The key aspects of the experimental method were as follows: • 1. […] Assays monitored, via fluorescence detection, the formation of a fluorescent metabolite following incubation of the microsomes with a specific CYP substrate. • 3. Compounds of the present invention were tested in duplicate samples at eight test concentrations using 3-fold serial dilutions (concentration range of 0.0457 to 100 μM). • 4. For each CYP-450 enzyme, a specific inhibitor was tested in duplicate at eight concentrations as a positive control. • 5. The concentration of the inhibitor or test compound that inhibited metabolite formation by 50% (IC50) was calculated by non-linear regression analysis of the % inhibition vs. log concentration (M) curve.

A further series deals with T2, CYP1A2 (Homo sapiens, UniProt P05177).
T2 construct: purchased BD Gentest, Becton-Dickinson (Supersomes); host or cells: insect cells
T2 sequence (P05177 1-516): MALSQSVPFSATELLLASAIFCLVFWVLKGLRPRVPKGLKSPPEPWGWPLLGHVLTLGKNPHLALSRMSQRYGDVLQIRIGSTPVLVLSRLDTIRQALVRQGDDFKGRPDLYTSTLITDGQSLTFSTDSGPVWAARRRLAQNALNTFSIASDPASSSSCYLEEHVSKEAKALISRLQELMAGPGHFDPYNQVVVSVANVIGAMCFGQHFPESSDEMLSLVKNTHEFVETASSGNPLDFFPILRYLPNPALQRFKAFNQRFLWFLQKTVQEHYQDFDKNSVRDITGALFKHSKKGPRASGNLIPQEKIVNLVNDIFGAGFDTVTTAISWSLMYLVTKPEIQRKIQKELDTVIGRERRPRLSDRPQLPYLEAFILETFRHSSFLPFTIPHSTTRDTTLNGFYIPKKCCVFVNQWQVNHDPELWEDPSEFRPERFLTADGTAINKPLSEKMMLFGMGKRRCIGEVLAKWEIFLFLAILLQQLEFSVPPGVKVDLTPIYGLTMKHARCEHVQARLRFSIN
In words: Cytochrome P450 inhibition, CYP1A2. The conditions noted are these: read-out: IC50 1A2. The class given is in vitro ADME.
Text: as §1, §2, §3

For a further series, the target named is T3, CYP2A6 (Homo sapiens, UniProt P11509).
T3 construct: purchased BD Gentest, Becton-Dickinson (Supersomes); host or cells: insect cells
T3 sequence (P11509 1-494): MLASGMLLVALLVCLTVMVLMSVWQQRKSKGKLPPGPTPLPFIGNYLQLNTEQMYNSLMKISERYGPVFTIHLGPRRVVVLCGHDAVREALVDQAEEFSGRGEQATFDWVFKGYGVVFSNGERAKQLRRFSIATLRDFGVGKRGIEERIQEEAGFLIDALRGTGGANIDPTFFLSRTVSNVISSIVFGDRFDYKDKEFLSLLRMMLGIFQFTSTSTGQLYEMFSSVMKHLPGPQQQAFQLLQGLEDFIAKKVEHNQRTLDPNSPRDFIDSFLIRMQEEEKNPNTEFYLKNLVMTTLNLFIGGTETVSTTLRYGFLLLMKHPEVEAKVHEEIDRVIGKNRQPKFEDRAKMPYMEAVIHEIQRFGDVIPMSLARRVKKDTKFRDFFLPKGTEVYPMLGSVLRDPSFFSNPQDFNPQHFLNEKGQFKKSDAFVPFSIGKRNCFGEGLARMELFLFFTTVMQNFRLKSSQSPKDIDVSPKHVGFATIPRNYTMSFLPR
The series is described as follows: Cytochrome P450 inhibition, CYP2A6. The class given is in vitro ADME. The conditions noted are these: read-out: IC50 2A6.
Text: as §1, §2, §3

In the next series the target is T4, CYP2C8 (Homo sapiens, UniProt P10632).
T4 construct: purchased BD Gentest, Becton-Dickinson (Supersomes); host or cells: insect cells
T4 sequence (P10632 1-490): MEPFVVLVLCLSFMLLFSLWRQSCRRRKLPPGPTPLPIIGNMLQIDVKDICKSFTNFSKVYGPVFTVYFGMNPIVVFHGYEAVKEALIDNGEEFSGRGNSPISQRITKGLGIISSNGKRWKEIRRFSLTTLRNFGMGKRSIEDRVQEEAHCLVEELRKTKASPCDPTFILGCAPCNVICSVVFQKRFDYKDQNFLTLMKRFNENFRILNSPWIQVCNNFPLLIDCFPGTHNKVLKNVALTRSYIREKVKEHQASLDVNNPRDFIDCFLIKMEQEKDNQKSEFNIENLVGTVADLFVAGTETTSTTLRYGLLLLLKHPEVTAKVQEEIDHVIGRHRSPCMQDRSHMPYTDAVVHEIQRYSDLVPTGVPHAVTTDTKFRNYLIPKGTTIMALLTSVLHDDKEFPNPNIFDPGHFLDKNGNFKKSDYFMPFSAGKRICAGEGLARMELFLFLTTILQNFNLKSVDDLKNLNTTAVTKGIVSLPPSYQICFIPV
In words: Cytochrome P450 inhibition, CYP2C8. The class given is in vitro ADME. Conditions: read-out: IC50 2C8.
Text: as §1, §2, §3

A short description of series [1]: Pharmacokinetic analysis (oral bioavailability, elimination half-life) in the rat. The conditions noted are these: oral administration, HPLC-MS. The class given is in vivo. In outline: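 Rat, oral dosing at 8 mg/kg (one compound at 2 mg/kg). Plasma levels by HPLC-MS, giving oral bioavailability and elimination half-life.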

T1 sequence (P11712 whole entry): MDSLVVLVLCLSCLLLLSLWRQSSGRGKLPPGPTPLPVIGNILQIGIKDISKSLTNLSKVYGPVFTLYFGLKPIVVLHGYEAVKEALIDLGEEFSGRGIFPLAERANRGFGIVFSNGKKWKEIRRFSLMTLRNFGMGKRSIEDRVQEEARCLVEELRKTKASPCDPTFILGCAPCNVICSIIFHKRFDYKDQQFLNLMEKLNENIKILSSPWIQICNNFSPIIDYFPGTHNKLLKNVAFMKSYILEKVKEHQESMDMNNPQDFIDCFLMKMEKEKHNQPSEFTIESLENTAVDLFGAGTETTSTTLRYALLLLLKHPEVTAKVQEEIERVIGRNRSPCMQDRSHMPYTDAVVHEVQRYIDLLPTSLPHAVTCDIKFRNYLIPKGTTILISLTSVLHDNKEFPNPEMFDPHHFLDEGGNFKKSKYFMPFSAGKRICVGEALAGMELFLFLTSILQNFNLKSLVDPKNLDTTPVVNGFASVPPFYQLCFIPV

In the case of `CC(C)CC1NC(=O)C(C)N(C)C(=O)C(C2CC2)NCC(C)OC2CCCCC2CCCNC1=O` (mixture of isomers) [Compound 825], the pIC50 on CYP2C9, on CYP1A2, on CYP2A6 and on CYP2C8 was less than 4.00 in each case. For the same molecule, in series [1] (8 mg/kg dose), the “Elimination Half-life (t1/2, rat, min)” value is given as 101 min. In addition, the “Oral Bioavailability (rat, % F)” value in series [1] (8 mg/kg dose) is recorded as 37 % F.

On to `CC1CNC(C2CC2)C(=O)N(C)C(C)C(=O)NC(Cc2ccc(O)cc2)C(=O)NCCCC2CCCCC2O1` (mixture of isomers) [Compound 826], for which the pIC50 at CYP2C9, at CYP1A2, at CYP2A6 and at CYP2C8 was less than 4.00 throughout. The “Elimination Half-life (t1/2, rat, min)” value in series [1] (8 mg/kg dose) was found to be 77 min. Further, the “Oral Bioavailability (rat, % F)” value in series [1] (8 mg/kg dose) is listed as 29 % F.

Take `CC(C)CC1NC(=O)C(C)N(C)C(=O)C(C2CCCCC2)NCC(C)OC2CCCCC2CCCNC1=O` (mixture of isomers) [Compound 828]: the pIC50 at CYP2C9, on CYP1A2, at CYP2A6 and on CYP2C8 was less than 4.00 each time.

As to `C[C@@H]1C(=O)N[C@H](Cc2ccc(O)cc2)C(=O)NCCCc2cccc3c2O[C@H](CC3)CN[C@@H](C2CC2)C(=O)N1C` [Compound 803], the pIC50 (commonly −log10 of the IC50, conventionally taken in molar units) was less than 4.00 at CYP2C9, less than 4.00 on CYP1A2, less than 4.00 at CYP2A6 and 4.26 on CYP2C8. Also, the “Elimination Half-life (t1/2, rat, min)” value in series [1] (8 mg/kg dose) was 151 min. Also, the “Oral Bioavailability (rat, % F)” value in series [1] (8 mg/kg dose) is 9 % F.

On to `CC(C)C[C@H]1NC(=O)[C@@H](C)N(C)C(=O)[C@H](C2CC2)NC[C@@H](C)Oc2ccccc2CC[C@H](C)NC1=O` [Compound 807], for which the pIC50 on CYP2C9, on CYP1A2, on CYP2A6 and at CYP2C8 was less than 4.00 in each case. For the same molecule, the “Oral Bioavailability (rat, % F)” value in series [1] (8 mg/kg dose) turned out to be 23 % F. Besides, the half-life in series [1] (plasma, 8 mg/kg dose, read-out: Elimination Half-life (t1/2, rat, min)) came out at 197 min.

`C[C@@H]1C(=O)N[C@H](Cc2ccc(O)cc2)C(=O)NCCCc2ccc(F)cc2OCCN[C@@H](C2CC2)C(=O)N1C` [Compound 809]: the pIC50 at CYP2C9, at CYP1A2, at CYP2A6 and on CYP2C8 was less than 4.00 in each case.

On to `CC(C)C[C@H]1NC(=O)[C@@H](C)N(C)C(=O)[C@H](C2CC2)NCCOc2cc(F)ccc2CCCNC1=O` [Compound 810], for which the pIC50 on CYP2C9 is less than 4.00; at CYP1A2, 4.16; at CYP2A6, less than 4.00; on CYP2C8 it was less than 4.00. For the same molecule, the “Elimination Half-life (t1/2, rat, min)” value in series [1] (8 mg/kg dose) amounted to 116 min. Moreover, the “Oral Bioavailability (rat, % F)” value in series [1] (8 mg/kg dose) is on record as 15 % F.

Turning to `CC1NC(C2CC2)C(=O)N(C)C(C)C(=O)NC(Cc2ccc(O)cc2)C(=O)NCCCc2ccccc2OC1C` (centres unmarked) [Compound 820], the pIC50 on CYP2C9, at CYP1A2, on CYP2A6 and at CYP2C8 was less than 4.00 in each case. Further, the “Elimination Half-life (t1/2, rat, min)” value in series [1] (8 mg/kg dose) is listed as 137 min. For the same molecule, the “Oral Bioavailability (rat, % F)” value in series [1] (8 mg/kg dose) was 18 % F.

Turning to `CC(C)C[C@H]1NC(=O)[C@@H](C)N(C)C(=O)[C@H](C2CC2)NCCOc2cc(F)ccc2CC[C@H](C)NC1=O` [Compound 822], the pIC50 at CYP2C9, on CYP1A2, at CYP2A6 and at CYP2C8 was less than 4.00 each time. The “Elimination Half-life (t1/2, rat, min)” value in series [1] (2 mg/kg dose (compound 822)) stood at 65 min. Besides, the “Oral Bioavailability (rat, % F)” value in series [1] (2 mg/kg dose (compound 822)) is recorded as 51 % F.
